Measured values taken from patent US8889731B2, “Compounds, compositions and methods for repelling blood-feeding arthropods and deterring their landing and feeding” (Contech Enterprises Inc., priority 2007, dated 2014).

Legend:
[1] = test system: male or female Aedes aegypti antennae; experiment: Coupled gas chromatographic-electroantennographic detection (GC-EAD) of garlic oil extract
Method: FIG. 1 illustrates flame ionization detector (FID) and electroantennograhic detector (EAD: male or female Aedes aegypti antennae) responses to aliquots of the low boiling temperature portion of garlic oil extract. Chromatography: Hewlett Packard (HP) gas chromatograph equipped with a fused silica column (30 m×0.32 mm ID) coated with DB-5; injector and detector temperature: 250° C.; temperature program: 50° C.
Aliquots of garlic oil extracts were then subjected to coupled gas chromatographic-electroantennographic detection (GC-EAD) analysis. Fourteen components (10 shown in FIG. 1) elicited responses from female or male mosquito antennae. Some of these components were isolated by high-performance liquid chromatography (HPLC) for identification by nuclear magnetic resonance spectroscopy (NMR). Other components were identified (compounds 11-14 in TABLE 2) by coupled GC-mass spectrometry and by retention index calculations. […] Four of the 10 components in FIG. 1 were tentatively identified by comparing their mass spectra and retention indices with those reported in the literature (Block et al. 1998).
(§1) Components with high molecular weight (>250 daltons) are advantageous in that they: 1) dissipate slowly from treated surfaces; 2) provide long-lasting protection against mosquitoes and 3) convey little, if any, offensive smell. The relative abundance of such components was enhanced by treating garlic oil under vacuum, thus stripping away lower-boiling components. In GC-EAD analyses of the high-boiling residue, four components elicited responses from mosquito antennae.

mosquitoes = experiment: General bioassay procedure with garlic oil, its components and fractions (mosquito species not given); format: in vivo
Method: (§2) Candidate repellents and deterrents were bioassayed according to a modified protocol from the World Health Organization (1996). At least 1 hour prior to each bioassay, 75 host-seeking non blood-fed, nulliparous, 5- to 8-day-old female Aedes aegypti, Anopheles gambiae or Culex quinquefasciatus were placed into a wood-framed cage (26.5 cm on each side and 42.5 cm high) with a wooden floor, screened mesh sides and top, and a clear acrylic front fitted with a cotton stockinette sleeve (10 cm diameter). The test subject's arm was covered with an elbow-length polyethylene glove with an excised patch (16.6 cm long, 6 cm wide) to expose the ventral forearm of the test subject. Candidate deterrents were formulated in mineral (paraffin) oil and applied to the exposed forearm 5 min prior to inserting the arm into the cage. The inserted arm remained in the cage for 3 min every 30 min. Prior to each 3-min bioassay period, the hand of the untreated arm was inserted into the cage to ascertain that it received 10 bites within 30 sec as an indication of “biting pressure”.
(§3) The bioassay was terminated when the treated arm received ≧2 bites in one 3-min bioassay period or one bite in each of two consecutive bioassay periods. The time elapsed from experiment initiation to first bite was recorded as deterrent failure or complete protection time.
(§4) N,N-diethyl-m-toluamide formulated in ethanol at a corresponding dose served as a positive control, and mineral oil by itself served as a negative control. On each day, only one candidate compound was tested, ensuring that any residual material in the chamber had disappeared before the next bioassay.
Garlic oil (Allium sativum—Mexico; Clearwater Soap Works, Box 1775 RR1, Clearwater, BC V0E 1N0, Canada) was formulated in mineral oil and tested using the general bioassay procedure described in EXAMPLE 2 at a dose of 0.1 mg per cm^2 of arm surface. It expressed repellence and deterrence for ˜30 min.
Some of the 10 components in FIG. 1 were bioassayed singly (see general bioassay procedure) and in various combinations, all of which were as deterrent to mosquitoes as garlic oil.
To determine the most deterrent component(s) in garlic oil, it was fractionated by HPLC into four fractions, each containing one or more of the EAD-active components (compounds 1-10 in FIG. 1 and 11-14 in TABLE 2). Each fraction was then bioassayed and shown to be similarly effective in repelling and deterring mosquitoes.
as §1

Aedes aegypti = experiment: Arm-in-cage repellent/deterrent bioassay on exposed human forearm (modified WHO protocol), Aedes aegypti; format: in vivo
Method: as §2, §3, §4
To determine the repellence and deterrence of 8-allylsulfanyloctan-1-ol against Aedes aegypti, a 5%, 10% or 25% formulation of 8-allylsulfanyloctan-1-ol in mineral oil was applied in Experiments 1-3 at a dose of 1.5 mg (total composition) per cm^2 to the skin of the test person, and was bioassayed according to the protocol described under EXAMPLE 2. In Experiment 4, mineral oil by itself served as a negative control and was bioassayed at the same dose (1.5 mg per cm^2) as in Experiments 1-3. Each of Experiments 1-4 was replicated four times.
To compare the repellence and deterrence against Aedes aegypti caused by 8-allylsulfanyloctan-1-ol as a single active ingredient and by 8-allylsulfanyloctan-1-ol in combination with vanillin as a second active ingredient, we tested a 6.7% emulsion of vanillin (Experiment 14), a 6.7% emulsion of 8-allylsulfanyloctan-1-ol (Experiment 15), and a 13.4% emulsion of 8-allylsulfanyloctan-1-ol plus vanillin (1:1 ratio) (Experiment 16). 8-Allylsulfanyloctan-1-ol and vanillin were formulated in Emulsion No. 1 (see EXAMPLE 9). In each of Experiments […], test stimuli were applied at a dose of 1.5 mg per cm^2 to the skin of the test person, and were bioassayed according to the protocol described under EXAMPLE 2. In Experiment 17, Emulsion No. 1 served as a positive control and was tested at the same dose (1.5 mg per cm^2) as in Experiments 14-16.
To be able to compare the repellence and deterrence caused by N,N-diethyl-m-toluamide and by 8-allylsulfanyloctan-1-ol plus vanillin in Emulsion No. 1 (EXAMPLE 9), Experiment 26 tested a 6.7% formulation of N,N-diethyl-m-toluamide in ethanol (the best formulant for DEET) for protection from bites by Aedes egypti. In each replicate, a dose of 1.5 mg per […] was applied to the skin of the test person and bioassayed according to the protocol described under EXAMPLE 2.
To be able to further compare the deterrence caused by N,N-diethyl-m-toluamide with that caused by 8-allylsulfanyloctan-1-ol plus vanillin, Experiment 27 tested a 10.4% formulation of N,N-diethyl-m-toluamide in ethanol, and Experiment 28 tested 8-allylsulfanyloctan-1-ol (10.4%) plus vanillin (7.9%) in Emulsion No. 2 (EXAMPLE 10). […]

## C=CCSSCC(C)SSCC=C (stereo not drawn) [Compound 12, 6-methyl-4,5,8,9-tetrathiadodeca-1,11-diene]
[1]
  electroantennographic (EAD) response of mosquito antennae: Antennal stimulatory
mosquitoes
  repellent and deterrent effect in bioassays (in words): strong repellent and deterrent effect
Aedes aegypti; Aedes aegypti, topical, Dosage 0.1 mg/cm^2, (C-T)/C x 100 at time of failure, read-out: Percent repellence
  pest or weed control at 0.1 mg/cm2: 87%
Aedes aegypti; Aedes aegypti, topical, Dosage 0.5 mg/cm^2, (C-T)/C x 100 at time of failure, read-out: Percent repellence
  pest or weed control at 0.5 mg/cm2: 97%
Aedes aegypti; Dosage 0.1 mg/cm^2, 0 = immediate failure
  Failure time: 0 min
Aedes aegypti; Dosage 0.5 mg/cm^2
  Failure time: 102 min
